Test results taken from PubChem BioAssay (NCI).
“And” between values parts separate entries of the source, which are not always exact repeats. Equal values may be shown once.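 Five concentrations, 48 hours, 96-well plates. GI50 marks 50% less growth. TGI marks complete inhibition of growth.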

How the values were obtained:
Experiment in all cases: NCI-60 cell line screen, 48 h
DU-145 prostate = tested on: DU-145 prostate
EKVX NSCLC = tested on: EKVX NSCLC
HS 578T breast = tested on: HS 578T breast
HT29 colon = tested on: HT29 colon
NCI-H226 lung = tested on: NCI-H226 lung
NCI/ADR-RES ovarian = tested on: NCI/ADR-RES ovarian
OVCAR-8 ovarian = tested on: OVCAR-8 ovarian
T-47D breast = tested on: T-47D breast
U251 CNS = tested on: U251 CNS
CCRF-CEM leukemia = tested on: CCRF-CEM leukemia

| SMILES | GI50 (DU-145 prostate) [µM] | TGI (DU-145 prostate) [µM] | GI50 (EKVX NSCLC) [µM] | TGI (EKVX NSCLC) | GI50 (HS 578T breast) [µM] | TGI (HS 578T breast) [µM] | GI50 (HT29 colon) [µM] | TGI (HT29 colon) | GI50 (NCI-H226 lung) [µM] | TGI (NCI-H226 lung) [µM] | GI50 (NCI/ADR-RES ovarian) [µM] | TGI (NCI/ADR-RES ovarian) [µM] | GI50 (OVCAR-8 ovarian) [µM] | TGI (OVCAR-8 ovarian) | GI50 (T-47D breast) [µM] | TGI (T-47D breast) [µM] | GI50 (U251 CNS) [µM] | TGI (U251 CNS) [µM] | TGI (CCRF-CEM leukemia) | GI50 (CCRF-CEM leukemia) [µM] |
| --- | --- | --- | --- | --- | --- | --- | --- | --- | --- | --- | --- | --- | --- | --- | --- | --- | --- | --- | --- | --- |
| Cc1ccc(S(=O)(=O)NC(CCCCN)C(=O)CCl)cc1 (centres undefined) | 81.2 | > 100 | 27.3 | 93.4 µM | 40.9 | > 100 | > 100 | > 100 µM | 79.9 | > 100 | 81.3 | > 100 | > 100 | > 100 µM | > 100 | > 100 | 29 | > 100 | – | – |
| COCC(O)CN1C(N)=NC(O)C1O (centres undefined) | – | – | – | > 100 µM | – | – | – | > 100 µM | – | > 100 | – | – | – | > 100 µM | – | – | – | > 100 | – | – |
| CCN(CC)CC(C(=O)Nc1c(C)cccc1C)/C(C)=N/NC(N)=S (centres undefined) | – | – | – | > 100 µM | – | – | – | > 100 µM | – | > 100 | – | – | – | > 100 µM | – | – | – | > 100 | > 100 µM | – |
| Cc1cc(N2CCOCC2)nc(N(CCNc2ccnc3cc(Cl)ccc23)Cc2cccs2)n1 | – | – | 2.79 | 44 µM | 2.24 | 5.45 | – | – | – | – | 3.45 | > 100 | 1.96 | 4.06 µM | 1.84 | 4.4 | 1.88 | 3.64 | 6.1 µM | 2.02 |
| Cc1cn2cc(-c3ccncc3)nc2s1 | – | – | – | > 100 µM | – | – | – | > 100 µM | – | > 100 | – | – | – | > 100 µM | – | – | – | > 100 | > 78.1 µM | – |
| COc1ccc(/C=C2\CN(Cc3cn(CCCNc4ccnc5cc(Cl)ccc45)nn3)C/C(=C\c3ccc(OC)cc3)C2=O)cc1 | 1.81 | 3.3 | – | – | 6.27 | 29.7 | 1.82 | 6.38 µM | 25.5 | > 100 | 3.15 | 14.5 | 2.06 | 5.64 µM | 21 | 51.1 | 5.53 | 18.9 | 7.01 µM | 2.39 |
| O=C1C2=C(Nc3cc([N+](=O)[O-])ccc3N2)OC1c1c[nH]c2ccc(COc3ccccc3)cc12 (centres undefined) | – | > 100 | – | > 100 µM | – | > 100 | – | > 100 µM | – | > 100 | – | > 100 | – | > 100 µM | – | > 100 | – | > 100 | – | – |
| O=C(Nc1cccc(Cl)c1)c1cc2cc(N=Nc3ccc(Br)cc3)ccc2oc1=O | – | – | – | > 100 µM | – | – | – | > 100 µM | – | – | – | – | – | > 100 µM | – | – | – | > 100 | – | – |
| CC/C(=C(\c1ccccc1)c1ccc(OCC[N+](C)(C)C)cc1)c1ccccc1 | – | – | – | 33 µM | – | – | – | 29.6 µM | – | 26.7 | – | – | – | 37.9 µM | – | – | – | 29.2 | 26.1 µM | – |
| Cc1ccc(CCNC(=S)SCC(NC(=O)CCC(N)C(=O)O)C(=O)NCC(=O)O)cc1 (centres undefined) | – | – | – | 18.6 µM | – | – | – | 7.01 µM | – | 4.47 | – | – | – | 4.65 µM | – | – | – | 4.06 | 2.18 µM | – |
| CC1SC(c2cccc(Oc3ccccc3)c2)N(CCc2cccs2)C1=O (centres undefined) | 1.6 | 3.88 | 0.368 | 1.92 µM | – | – | 1.08 | 2.93 µM | 1.28 | 2.94 | 0.708 | 3.01 | 1.49 | 5.06 µM | 0.594 | 5.11 | 1.11 | 2.49 | > 24 µM | 0.747 |
| Oc1ccc(-c2nc(-c3ccc4oc5ccc(-c6[nH]c(-c7ccc(O)cc7)nc6-c6ccccc6)cc5c4c3)c(-c3ccccc3)[nH]2)cc1 | 4.83 | 20.6 | – | – | 3.55 | 68.7 | 3.8 | 11.3 µM | 13.3 | > 100 | 16 | > 100 | 2.23 | 5.32 µM | 4.66 | > 100 | 2.93 | 15 | – | – |
| CCCCCCn1c(=N)n(CC(O)COc2cccc(C)c2)c2ccccc21 (centres undefined) | 3.67 | 12.1 | – | – | 2.63 | 8.27 | 1.73 | 3.59 µM | 3.14 | 12.5 | 2.82 | 8.89 | 2.21 | 4.74 µM | 2.19 | 4.86 | – | – | 7.14 µM | 2.36 |
| CC(=O)OC12CCCCC1C1(CCCC1)NC2=O (centres undefined) | – | – | – | > 100 µM | – | – | – | > 100 µM | – | > 100 | – | – | – | > 100 µM | – | – | – | > 100 | > 100 µM | – |
| CCOC(=O)c1ccccc1NC(c1ccccc1)c1ccc2cccnc2c1O (centres undefined) | 5.94 | > 100 | – | – | 7.53 | > 100 | 4.58 | > 100 µM | 2.69 | 13.9 | 2.78 | 21.4 | 3.31 | 52.2 µM | 4.22 | > 100 | 2.75 | 16.5 | > 100 µM | 2.32 |
| COc1cccc2c1C(=N)c1c(O)c3c(c(O)c1C2=O)C[C@@](O)(C(C)=O)C[C@@H]3OC1CC(N)C(O)C(C)O1 (some centres undefined) | 0.018 | 0.0618 | – | 3.82 µM and 7.64 µM and 2.29 µM | – | – | – | 7.19 µM and 4.43 µM and 1.71 µM | – | – | 0.466 | – | – | 2.62 µM and 3.56 µM | 0.0174 | 4.86 | – | – | 0.473 µM and 0.975 µM | – |
| Nc1n[nH]c(=O)c2c1c(Br)cn2C1OC(CO)C(O)C1O (centres undefined) | – | – | – | 39.5 µM | – | – | – | > 100 µM | – | 59.3 | – | – | – | 6.23 µM | – | – | – | > 54.6 | 19.2 µM | – |
| O=C1c2ccccc2CC1C1(O)C(=O)Nc2c(Cl)cc(Cl)cc21 (centres undefined) | – | – | – | > 100 µM | – | – | – | > 100 µM | – | > 100 | – | – | – | > 100 µM | – | – | – | > 100 | > 100 µM | – |
| COC(=O)C1CCC2(CC1)NC(=O)NC2=O (centres undefined) | – | – | – | > 100 µM | – | – | – | > 100 µM | – | > 100 | – | – | – | > 100 µM | – | – | – | > 100 | > 100 µM | – |
| COc1ccc(/C=C(\NC(=O)c2ccccc2)c2nc3ccccc3[nH]2)cc1 | – | – | – | > 100 µM | – | – | – | > 100 µM | – | > 100 | – | – | – | > 100 µM | – | – | – | > 100 | > 100 µM | – |
